Tests used:
HT-1080-FAP xenografts = assay: Small animal PET imaging; format: in vivo, BALB/c nu/nu mice; conditions: for Tumor Uptake (SUVmean) 8 min / Tumor Uptake (SUVmean) 22 min / Tumor Uptake (SUVmean) 57 min / Tumor Uptake (SUVmean) 120 min: HT1080-FAP transplanted nude mice
Procedure: Eight-week-old BALB/c nu/nu mice (Charles River) were subcutaneously inoculated with 5 × 10^6 HT-1080-FAP cells. The subcutaneous xenografts were grown at the flanks of the mice. Xenografts were grown to a tumor diameter of 10–15 mm. Mice were anesthetized using isoflurane inhalation. 5–10 MBq of the [^18F]AlF-labeled compounds/ the respective tracer (FAPI-42/52/74/75/76; approx. 0.5 nmol; Am approximately 10–20 GBq/µmol) were injected intravenously for PET imaging. In vivo competition (blocking) experiments with ^68 Ga-FAPI-74 (9 MBq; 18.2 GBq/µmol) were performed by adding 30 nmol of unlabeled FAPI-74 to the injection solution. Images were acquired using a small-animal PET scanner (Inveon, Siemens). Within the first 60 min p.i., a dynamic scan was performed in list mode, followed by a static scan from 120–140 min post injection. Images were reconstructed iteratively using the 3D-OSEM + MAP method (Siemens) and were converted to standardized uptake value (SUV). For the dynamic analysis, 28 frames were reconstructed. Quantification was based on ROI analysis and expressed as SUV.
SUPPLEMENTAL TABLE 1: Tumor-SUVmean values of all mentioned ^18F labeled FAPI-derivatives in HT1080-FAP transplanted nude mice at different time points. The time points 8 min, 22 min and 57 min were selected from the applied 28-frame 3D-OSEM+MAP (Siemens) reconstruction method.

[1] = Determination of logD values (1-octanol / PBS); format: physicochemical; conditions: 1-octanol / phosphate buffered saline, pH 7.4
Procedure: All experiments for the determination of logD values were performed in triplicate. For the determination by means of radioactivity, around 5 × 10^6 cpm in ca. 1 µL of radioactive stock solutions (water/acetonitrile 1:1) were added to 100 µL phosphate buffered saline (PBS, pH 7.4) and 100 µL of 1-octanol. The mixture was vortexed for 1 min, followed by 5 min of centrifugation for phase separation. A sample of each phase (10 or 50 µL) was measured for radioactivity per volume (Packard Cobra II Autogamma, GMI Inc., USA). In case of FAPI-72 and -73, the reference compounds [^19F]-FAPI-72 and -73 were dissolved in PBS at a concentration of 1 mg/mL. 50 µL of these solutions were each mixed with 50 µL 1-octanol and processed by vortexing and centrifugation as described above. 1 µL of each phase was analyzed by HPLC and the individual content of compound was determined by peak integration. The area under the peaks of the individual runs was used to calculate the log D value.
Fig. 1 Overview of the synthesized precursors discussed in this study. The corresponding log D values were determined by detection of the radiolabeled tracer in 1-octanol and phosphate buffered saline (pH 7). For values labeled with an asterix, the log D was calculated from the relative content of the non-radioactive reference standards in the 1-octanol and the water phase by HPLC analysis and peak integration TEXT PRINTED IN THE PICTURE: FAPI-42: LOG D: -1.63±0.06 | FAPI-52: LOG D: -1.90±0.02 | FAPI-72: LOG D: 1.20±0.01* | FAPI-73: LOG D: 1.13±0.05* | FAPI-74: LOG D: -2.42±0.03 | FAPI-75: LOG D: -3.36±0.12 | FAPI-76: LOG D: -2.86±0.07

[2] = biological target: T1, FAP‐transfected HT‐1080‐FAP cells (Homo sapiens, UniProt Q12884); assay: In vitro binding/uptake on FAP-transfected HT-1080-FAP cells; format: cell-based; conditions: HT1080-FAP cells; for uptake 10 min: 10 min incubation; for uptake 60 min: 60 min incubation; for uptake, measurement at 90 min: printed in 120 min column, footnote a: 90 min; for uptake 120 min: 120 min incubation
T1 construct: expressed in transfected cells; host or cells: HT-1080 cells transfected with FAP (HT-1080-FAP)
T1 sequence (Q12884 1-760): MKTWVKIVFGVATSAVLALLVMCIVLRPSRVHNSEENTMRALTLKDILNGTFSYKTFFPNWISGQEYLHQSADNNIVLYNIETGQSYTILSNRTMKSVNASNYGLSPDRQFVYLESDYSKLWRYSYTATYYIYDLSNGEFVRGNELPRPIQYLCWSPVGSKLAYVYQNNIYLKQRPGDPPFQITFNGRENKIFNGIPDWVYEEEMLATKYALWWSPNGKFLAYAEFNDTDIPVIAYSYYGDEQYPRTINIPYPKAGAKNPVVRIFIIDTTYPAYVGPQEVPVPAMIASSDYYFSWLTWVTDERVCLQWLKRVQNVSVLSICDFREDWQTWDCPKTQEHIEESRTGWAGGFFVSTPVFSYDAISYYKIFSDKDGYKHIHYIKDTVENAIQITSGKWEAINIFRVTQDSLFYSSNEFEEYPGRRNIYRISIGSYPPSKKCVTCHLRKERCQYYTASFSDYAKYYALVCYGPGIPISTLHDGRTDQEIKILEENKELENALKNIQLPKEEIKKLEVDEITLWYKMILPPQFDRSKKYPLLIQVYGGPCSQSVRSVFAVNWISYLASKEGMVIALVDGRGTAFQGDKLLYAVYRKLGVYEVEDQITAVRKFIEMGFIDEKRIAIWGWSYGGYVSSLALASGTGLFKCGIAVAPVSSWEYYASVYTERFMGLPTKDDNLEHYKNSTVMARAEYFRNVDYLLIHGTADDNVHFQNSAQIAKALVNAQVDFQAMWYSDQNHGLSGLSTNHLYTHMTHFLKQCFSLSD
Procedure: (§1) The binding properties of the FAPI derivatives were evaluated using the FAP‐transfected HT‐1080‐FAP and CD26 expressing HEK-CD26 cells. All cells were cultivated in Dulbecco's modified Eagle's medium (DMEM) containing 10% fetal calf serum (FCS) at 37 °C/5% carbon dioxide. Cells were seeded in 6-well plates and cultivated to a final confluence of approximately 80–90% (1.2 to 2.0 × 10^6 cells/well). After washing with FCS free medium, for each well ca. 3 kBq of the radiolabeled compound (10–20 GBq/µmol for [^18F]AlF-labeling) was added to the cells in FCS free medium. On completion of the individual incubation time, cells were washed with PBS and treated with 1.4 mL lysis buffer (0.3 m NaOH, 0.2% SDS) before being transferred to measuring tubes. Competition experiments were performed by co-incubation with the unlabeled precursor for 60 min. Radioactivity was determined in a Wizard Gamma Counter (Perkin Elmer), normalized to 10^6 cells and calculated as percentage of the applied dose (%AD). Each experiment was performed in triplicate.

FAP (HT-1080-FAP cells) = biological target: T2, FAP (HT-1080-FAP cells) (Homo sapiens, UniProt Q12884); assay: Competition experiments with unlabeled precursor on HT-1080-FAP cells; format: binding; conditions: co-incubation with unlabeled precursor for 60 min
T2 construct: expressed in transfected cells; host or cells: HT-1080 cells transfected with FAP (HT-1080-FAP)
T2 sequence (Q12884 1-760): T1 sequence (Q12884 1-760)
Procedure: as §1

[3] = tested on: U87MG- and A549-xenograft models; conditions: in vivo; cited from earlier work
[4] = biological target: T3, CD26 expressing HEK-CD26 cells (Homo sapiens, UniProt P27487); assay: In vitro binding on HEK-CD26 cells (negative control); format: cell-based
T3 construct: expressed in transfected cells; host or cells: HEK cells transfected with CD26/DPP4 (HEK-CD26)
Procedure: as §1

wild type HT1080 cells = assay: In vitro binding on wild type HT1080 cells (negative control); format: cell-based
Procedure: as §1
Table 1 summarizes the uptake and EC50 values of the discussed ^18F-labeled FAPI derivatives using the FAP-transfected cell line HT-1080-FAP. Additionally, the lead candidates FAPI-74 to -76 were tested on HEK-CD26 as well as -74 and -75 on wild type HT1080 cells as negative control. […] For FAPI-74, a plateau was already reached after approximately 10 min with 27.2 ± 0.88%AD/10^6cells. […] The EC50 values were all in the low to sub-nanomolar range. Only a neglectable fraction of FAPIs 74–76 were detected on HEK-CD26 cells (0.18–0.24%) as well as on wildtype HT1080 in case of -74 and 75 (< 0.1%).

[5] = small animal PET, HT-1080-FAP xenograft
[6] = non-radioactive reference standards, 1-octanol and water phase, HPLC analysis and peak integration (asterisk)
[7] = radiolabeled tracer detected by radioactivity in 1-octanol and phosphate buffered saline

T3 sequence (P27487 whole entry): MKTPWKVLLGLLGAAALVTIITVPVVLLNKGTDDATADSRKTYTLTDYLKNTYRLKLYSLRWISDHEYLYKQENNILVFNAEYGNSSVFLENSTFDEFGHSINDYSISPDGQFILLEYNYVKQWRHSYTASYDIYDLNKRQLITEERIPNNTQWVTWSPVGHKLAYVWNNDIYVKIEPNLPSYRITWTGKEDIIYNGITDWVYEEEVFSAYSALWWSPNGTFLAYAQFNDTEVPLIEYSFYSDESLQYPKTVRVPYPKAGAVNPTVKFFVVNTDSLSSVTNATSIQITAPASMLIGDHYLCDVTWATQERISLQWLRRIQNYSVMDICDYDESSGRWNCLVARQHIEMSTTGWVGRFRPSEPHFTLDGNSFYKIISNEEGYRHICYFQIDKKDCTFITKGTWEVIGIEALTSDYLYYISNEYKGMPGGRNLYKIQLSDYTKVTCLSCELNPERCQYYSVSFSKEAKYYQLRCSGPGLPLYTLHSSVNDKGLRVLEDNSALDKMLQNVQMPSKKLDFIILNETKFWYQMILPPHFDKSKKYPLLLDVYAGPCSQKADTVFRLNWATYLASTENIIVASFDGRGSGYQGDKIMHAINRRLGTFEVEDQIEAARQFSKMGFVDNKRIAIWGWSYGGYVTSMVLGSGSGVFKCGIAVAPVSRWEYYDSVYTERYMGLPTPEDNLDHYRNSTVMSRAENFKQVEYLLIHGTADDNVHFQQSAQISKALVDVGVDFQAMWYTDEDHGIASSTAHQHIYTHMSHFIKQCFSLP

SMILES | Tumor Uptake (SUVmean) 8 min (HT-1080-FAP xenografts) | Tumor Uptake (SUVmean) 22 min (HT-1080-FAP xenografts) | Tumor Uptake (SUVmean) 57 min (HT-1080-FAP xenografts) | Tumor Uptake (SUVmean) 120 min (HT-1080-FAP xenografts) | detectability of tumor region in PET (HT-1080-FAP xenografts; [5]) | logD [1, 6] | uptake 10 min [2] | uptake 60 min [2] | uptake, measurement at 90 min [2] | EC50 (FAP (HT-1080-FAP cells)) | logD [1, 7] | uptake 120 min [2] | further results
CN(CCCN1CCN(C(=O)c2ccc([N+](C)(C)C)nc2)CC1)c1ccc2nccc(C(=O)NCC(=O)N3CC(F)(F)C[C@H]3C#N)c2c1 [FAPI-72] | 0.19 | 0.15 | 0.13 | 0.1 | hardly detectable | 1.2 ± 0.01 | 13.9 ± 0.60 %AD/10^6 cells | 23.6 ± 0.40 %AD/10^6 cells | 24.4 ± 0.30^a %AD/10^6 cells | < 1 nM |  |  | 
CN(CCCN1CCN(C(=O)CN2CCN(CC(=O)O)CCN(CC(=O)O)CC2)CC1)c1ccc2nccc(C(=O)NCC(=O)N3CC(F)(F)C[C@H]3C#N)c2c1 [FAPI-52] | 0.65 | 0.55 | 0.47 | 0.20 |  |  | 32.0 ± 0.28 %AD/10^6 cells | 45.9 ± 0.54 %AD/10^6 cells |  | 3.2 nM | -1.9 ± 0.02 | 53.2 ± 1.38 %AD/10^6 cells | 
N#C[C@@H]1CC(F)(F)CN1C(=O)CNC(=O)c1ccnc2ccc(OCCCN3CCN(C(=O)CN4CCN(CC(=O)O)CCN(CC(=O)O)CC4)CC3)cc12 [FAPI-42] | 1.05 | 1.0 | 0.73 | 0.60 |  |  | 40.0 ± 1.73 %AD/10^6 cells | 61.2 ± 1.76 %AD/10^6 cells |  | 3.3 nM | -1.63 ± 0.06 | 58.0 ± 2.24 %AD/10^6 cells | tumor uptake SUVmean at early timepoints (HT-1080-FAP xenografts; small animal PET screening, early timepoints): approx. 1.0; elimination and bone accumulation [3]: hepatobiliary elimination together with an accumulation in the bone
C[N+](C)(C)c1ccc(C(=O)N2CCN(CCCOc3ccc4nccc(C(=O)NCC(=O)N5CC(F)(F)C[C@H]5C#N)c4c3)CC2)cn1 [FAPI-73] | 0.45 | 0.44 | 0.42 | 0.33 | hardly detectable | 1.13 ± 0.05 | 22.7 ± 0.24 %AD/10^6 cells | 39.2 ± 0.48 %AD/10^6 cells | 39.6 ± 0.95^a %AD/10^6 cells | < 1 nM |  |  | 
N#C[C@@H]1CC(F)(F)CN1C(=O)CNC(=O)c1ccnc2ccc(OCCCN3CCN(C(=O)[C@H](CC(C(=O)O)C(=O)O)NC(=O)CN4CCN(CC(=O)O)CCN(CC(=O)O)CC4)CC3)cc12 [FAPI-75] | 1.55 | 2.06 | 2.24 | 1.9 |  |  | 34.9 ± 0.26 %AD/10^6 cells | 74.0 ± 2.07 %AD/10^6 cells |  | 3.1 nM | -3.36 ± 0.12 | 82.35 ± 3.61 %AD/10^6 cells | excretion pathway (HT-1080-FAP xenografts; small animal PET in tumor bearing mice): favorable renal excretion; tumor uptake SUVmean (HT-1080-FAP xenografts; small animal PET screening, discussion): approx. 2.0; tumor-SUV max (HT-1080-FAP xenografts; [5]): 3.7; tumor-SUV mean (HT-1080-FAP xenografts; [5]): 2.2; uptake CD26 [4]: 0.18 ± 0.02 %AD/10^6 cells; uptake WT (wild type HT1080 cells; wild type HT1080 control cells): 0.06 ± 0.01 %AD/10^6 cells; fraction detected on wildtype HT1080 (wild type HT1080 cells; wildtype HT1080, text): < 0.1%

From PMC8380212, “^18F-labeled tracers targeting fibroblast activation protein” (EJNMMI Radiopharmacy and Chemistry, 2021)
